Assay results as given in article PMC4669708 (Cell Death & Disease, 2015).

What was measured:
Experiment in all cases: c-ponatinib pulldown LC-MS/MS
Type in all cases: binding
[1] = target: T1, YWHAG (Homo sapiens, UniProt P61981)
T1 sequence (P61981 1-247): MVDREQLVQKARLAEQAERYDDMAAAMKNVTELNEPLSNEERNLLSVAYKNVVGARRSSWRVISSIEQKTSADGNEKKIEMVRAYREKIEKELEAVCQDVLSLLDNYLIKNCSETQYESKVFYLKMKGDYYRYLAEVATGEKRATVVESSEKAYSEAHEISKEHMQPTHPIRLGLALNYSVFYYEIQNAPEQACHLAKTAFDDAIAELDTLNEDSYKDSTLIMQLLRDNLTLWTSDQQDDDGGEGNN
Method in brief: (§1)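 Read-out: interaction P-value combining Mascot scores, Phenyx scores and spectral counts (Fisher's method), plus fold reduction of median spectral counts on free-compound competition. Proteins were enriched from 10 mg cell lysate on c-ponatinib beads, then trypsin-digested for LC-MS/MS.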

[2] = target: RAF1 (Homo sapiens, UniProt P04049)
Method in brief: as §1

[3] = target: T2, YWHAQ (Homo sapiens, UniProt P27348)
T2 sequence (P27348 1-245): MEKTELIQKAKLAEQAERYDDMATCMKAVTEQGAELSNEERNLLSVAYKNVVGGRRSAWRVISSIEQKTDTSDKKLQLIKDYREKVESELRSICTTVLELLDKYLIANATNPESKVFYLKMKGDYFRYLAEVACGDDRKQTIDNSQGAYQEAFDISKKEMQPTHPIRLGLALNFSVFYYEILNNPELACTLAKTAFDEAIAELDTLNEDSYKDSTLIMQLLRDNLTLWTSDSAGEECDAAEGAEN
Method in brief: as §1

[4] = target: RIPK3 (Homo sapiens, UniProt Q9Y572)
Method in brief: as §1

[5] = target: IRAK1 (Homo sapiens, UniProt P51617)
Method in brief: as §1

[6] = target: PTK2B (Homo sapiens, UniProt Q14289)
Method in brief: as §1

[7] = target: CDK5 (Homo sapiens, UniProt Q00535)
Method in brief: as §1

[8] = target: JAK1 (Homo sapiens, UniProt P23458)
Method in brief: as §1

[9] = target: BLK (Homo sapiens, UniProt P51451)
Method in brief: as §1

[10] = target: MAPKAPK3 (Homo sapiens, UniProt Q16644)
Method in brief: as §1

[11] = target: CDK19 (Homo sapiens, UniProt Q9BWU1)
Method in brief: as §1

BLK, sequence (P51451 whole entry): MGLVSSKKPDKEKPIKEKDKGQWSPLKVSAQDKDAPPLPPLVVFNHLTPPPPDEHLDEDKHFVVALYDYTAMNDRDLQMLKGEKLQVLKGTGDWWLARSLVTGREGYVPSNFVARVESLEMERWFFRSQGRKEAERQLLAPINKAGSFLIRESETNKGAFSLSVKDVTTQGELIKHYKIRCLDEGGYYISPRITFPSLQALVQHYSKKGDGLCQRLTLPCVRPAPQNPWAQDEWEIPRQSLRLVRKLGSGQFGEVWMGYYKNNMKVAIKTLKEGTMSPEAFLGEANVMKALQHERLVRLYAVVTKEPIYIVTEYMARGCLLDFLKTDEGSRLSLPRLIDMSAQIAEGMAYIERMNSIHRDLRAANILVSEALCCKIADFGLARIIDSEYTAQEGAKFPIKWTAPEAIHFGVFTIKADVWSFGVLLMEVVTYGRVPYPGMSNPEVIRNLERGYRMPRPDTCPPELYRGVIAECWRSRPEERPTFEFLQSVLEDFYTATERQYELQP
IRAK1, sequence (P51617 whole entry): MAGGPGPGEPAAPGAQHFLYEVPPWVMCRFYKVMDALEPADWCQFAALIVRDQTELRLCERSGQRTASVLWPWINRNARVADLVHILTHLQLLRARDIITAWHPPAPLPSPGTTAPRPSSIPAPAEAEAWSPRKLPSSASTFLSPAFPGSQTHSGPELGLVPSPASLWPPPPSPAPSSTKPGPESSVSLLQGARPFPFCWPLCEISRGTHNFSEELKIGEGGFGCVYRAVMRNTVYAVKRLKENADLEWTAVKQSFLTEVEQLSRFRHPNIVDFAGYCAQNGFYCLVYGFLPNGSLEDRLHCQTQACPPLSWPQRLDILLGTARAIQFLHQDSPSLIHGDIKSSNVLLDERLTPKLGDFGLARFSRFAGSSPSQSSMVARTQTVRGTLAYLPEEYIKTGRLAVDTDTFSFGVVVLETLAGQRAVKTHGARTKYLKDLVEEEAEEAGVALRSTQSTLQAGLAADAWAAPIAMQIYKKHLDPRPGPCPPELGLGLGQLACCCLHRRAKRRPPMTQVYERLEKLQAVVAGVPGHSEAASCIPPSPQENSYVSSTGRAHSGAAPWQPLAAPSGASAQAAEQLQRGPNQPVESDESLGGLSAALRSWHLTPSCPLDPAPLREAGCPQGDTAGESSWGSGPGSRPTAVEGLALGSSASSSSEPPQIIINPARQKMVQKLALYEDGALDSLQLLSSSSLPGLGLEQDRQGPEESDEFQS
CDK19, sequence (Q9BWU1 whole entry): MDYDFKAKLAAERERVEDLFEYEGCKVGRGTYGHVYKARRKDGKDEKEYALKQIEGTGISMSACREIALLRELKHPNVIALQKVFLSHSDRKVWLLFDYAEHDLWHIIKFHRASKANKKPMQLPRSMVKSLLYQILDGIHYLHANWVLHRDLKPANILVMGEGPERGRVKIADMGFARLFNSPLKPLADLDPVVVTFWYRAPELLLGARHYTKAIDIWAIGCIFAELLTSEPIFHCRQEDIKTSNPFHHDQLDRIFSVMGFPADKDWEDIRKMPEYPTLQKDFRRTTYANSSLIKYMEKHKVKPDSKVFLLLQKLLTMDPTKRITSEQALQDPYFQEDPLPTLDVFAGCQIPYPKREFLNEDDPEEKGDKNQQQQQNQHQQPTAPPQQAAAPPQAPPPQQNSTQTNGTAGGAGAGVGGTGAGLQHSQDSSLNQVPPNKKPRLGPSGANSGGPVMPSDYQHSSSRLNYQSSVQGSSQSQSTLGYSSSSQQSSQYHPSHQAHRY
CDK19, sequence (P24863 whole entry partner): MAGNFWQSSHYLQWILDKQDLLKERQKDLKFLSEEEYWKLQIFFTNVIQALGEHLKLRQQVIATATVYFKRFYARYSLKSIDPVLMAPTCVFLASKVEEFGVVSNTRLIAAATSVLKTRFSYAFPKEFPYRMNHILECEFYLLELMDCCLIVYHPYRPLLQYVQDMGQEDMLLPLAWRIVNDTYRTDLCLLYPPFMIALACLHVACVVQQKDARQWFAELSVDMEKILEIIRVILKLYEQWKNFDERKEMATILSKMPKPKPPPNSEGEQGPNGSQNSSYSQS
RAF1, sequence (P04049 whole entry): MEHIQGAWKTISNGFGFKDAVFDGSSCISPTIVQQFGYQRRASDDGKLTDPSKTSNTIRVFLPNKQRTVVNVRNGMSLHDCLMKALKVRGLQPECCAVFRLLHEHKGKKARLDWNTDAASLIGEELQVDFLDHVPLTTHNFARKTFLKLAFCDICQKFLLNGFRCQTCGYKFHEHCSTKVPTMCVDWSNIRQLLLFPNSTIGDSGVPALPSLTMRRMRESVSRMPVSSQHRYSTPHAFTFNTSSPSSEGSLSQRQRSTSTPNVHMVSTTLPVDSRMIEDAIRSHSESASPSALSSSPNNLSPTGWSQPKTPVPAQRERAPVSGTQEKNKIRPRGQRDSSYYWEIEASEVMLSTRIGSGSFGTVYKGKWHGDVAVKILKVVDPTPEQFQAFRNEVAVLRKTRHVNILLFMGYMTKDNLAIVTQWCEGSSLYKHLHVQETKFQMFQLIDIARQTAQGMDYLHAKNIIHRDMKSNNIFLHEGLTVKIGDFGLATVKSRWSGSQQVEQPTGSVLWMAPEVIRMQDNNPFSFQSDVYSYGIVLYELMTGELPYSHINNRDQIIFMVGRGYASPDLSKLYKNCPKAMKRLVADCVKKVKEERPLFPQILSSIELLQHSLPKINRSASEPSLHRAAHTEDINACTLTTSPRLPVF
CDK5, sequence (Q00535 whole entry): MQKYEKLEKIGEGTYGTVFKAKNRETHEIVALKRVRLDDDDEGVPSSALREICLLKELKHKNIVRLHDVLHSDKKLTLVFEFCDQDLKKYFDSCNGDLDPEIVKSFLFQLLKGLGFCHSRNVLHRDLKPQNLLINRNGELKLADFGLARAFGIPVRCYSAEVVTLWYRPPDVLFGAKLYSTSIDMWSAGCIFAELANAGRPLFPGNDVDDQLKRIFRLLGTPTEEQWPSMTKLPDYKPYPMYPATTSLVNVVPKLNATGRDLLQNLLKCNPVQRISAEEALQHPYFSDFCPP
JAK1, sequence (P23458 whole entry): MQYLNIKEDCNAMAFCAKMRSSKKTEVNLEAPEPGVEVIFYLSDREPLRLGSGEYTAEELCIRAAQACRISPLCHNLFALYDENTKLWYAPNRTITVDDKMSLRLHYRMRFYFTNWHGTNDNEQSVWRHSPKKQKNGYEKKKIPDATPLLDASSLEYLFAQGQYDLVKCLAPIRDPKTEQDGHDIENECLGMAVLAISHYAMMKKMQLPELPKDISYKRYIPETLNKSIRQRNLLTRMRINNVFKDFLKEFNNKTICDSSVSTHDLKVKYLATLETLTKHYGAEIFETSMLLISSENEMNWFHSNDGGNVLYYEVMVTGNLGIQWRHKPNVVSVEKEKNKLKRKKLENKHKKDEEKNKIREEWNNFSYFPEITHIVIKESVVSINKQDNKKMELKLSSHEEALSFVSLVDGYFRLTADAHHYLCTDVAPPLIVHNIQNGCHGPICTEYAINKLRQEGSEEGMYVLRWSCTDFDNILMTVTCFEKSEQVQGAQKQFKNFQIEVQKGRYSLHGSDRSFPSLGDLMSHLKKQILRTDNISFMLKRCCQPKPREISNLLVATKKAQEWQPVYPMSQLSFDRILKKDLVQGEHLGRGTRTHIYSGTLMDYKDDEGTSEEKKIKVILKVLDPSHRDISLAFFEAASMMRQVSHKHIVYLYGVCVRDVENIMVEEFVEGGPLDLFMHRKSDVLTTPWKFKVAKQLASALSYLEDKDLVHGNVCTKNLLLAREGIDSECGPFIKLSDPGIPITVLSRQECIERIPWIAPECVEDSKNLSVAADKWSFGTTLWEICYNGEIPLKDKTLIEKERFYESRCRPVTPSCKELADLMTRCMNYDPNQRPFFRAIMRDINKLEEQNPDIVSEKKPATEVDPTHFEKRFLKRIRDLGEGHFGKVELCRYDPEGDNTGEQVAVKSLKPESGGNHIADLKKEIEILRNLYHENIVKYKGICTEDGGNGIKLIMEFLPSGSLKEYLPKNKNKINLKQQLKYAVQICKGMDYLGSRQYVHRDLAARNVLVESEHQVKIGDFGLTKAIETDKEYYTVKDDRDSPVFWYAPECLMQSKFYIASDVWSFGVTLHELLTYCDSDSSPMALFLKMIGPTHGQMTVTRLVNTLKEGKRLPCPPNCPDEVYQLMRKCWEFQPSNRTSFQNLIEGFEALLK
RIPK3, sequence (Q9Y572 whole entry): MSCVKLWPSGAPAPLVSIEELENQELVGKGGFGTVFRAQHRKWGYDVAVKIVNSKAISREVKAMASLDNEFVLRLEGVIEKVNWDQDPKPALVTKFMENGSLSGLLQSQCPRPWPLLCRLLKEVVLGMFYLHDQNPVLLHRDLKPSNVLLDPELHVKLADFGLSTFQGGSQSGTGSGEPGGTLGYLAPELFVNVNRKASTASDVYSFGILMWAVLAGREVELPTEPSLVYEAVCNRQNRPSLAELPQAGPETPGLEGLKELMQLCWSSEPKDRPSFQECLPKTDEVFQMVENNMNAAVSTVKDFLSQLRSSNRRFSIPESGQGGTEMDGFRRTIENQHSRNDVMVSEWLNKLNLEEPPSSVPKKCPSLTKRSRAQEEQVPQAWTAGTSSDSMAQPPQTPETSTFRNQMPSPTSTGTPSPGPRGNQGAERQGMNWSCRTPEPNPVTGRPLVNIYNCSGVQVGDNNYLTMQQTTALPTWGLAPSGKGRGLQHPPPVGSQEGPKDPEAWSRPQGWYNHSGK
MAPKAPK3, sequence (Q16644 whole entry): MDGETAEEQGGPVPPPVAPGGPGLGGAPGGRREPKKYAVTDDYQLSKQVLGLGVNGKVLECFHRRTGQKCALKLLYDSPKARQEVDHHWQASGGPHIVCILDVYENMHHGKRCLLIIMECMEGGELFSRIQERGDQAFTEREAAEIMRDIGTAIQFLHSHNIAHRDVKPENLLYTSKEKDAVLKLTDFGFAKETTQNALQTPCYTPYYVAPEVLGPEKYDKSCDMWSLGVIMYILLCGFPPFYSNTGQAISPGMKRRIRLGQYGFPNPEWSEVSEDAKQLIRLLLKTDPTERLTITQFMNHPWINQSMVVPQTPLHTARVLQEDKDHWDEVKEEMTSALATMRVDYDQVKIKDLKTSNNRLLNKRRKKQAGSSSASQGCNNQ

Cc1ccc(C(=O)Nc2ccc(CN3CCN(CCCN)CC3)c(C(F)(F)F)c2)cc1C#Cc1cnc2cccnn12 [c-ponatinib]
Av. SC comp. ([1]; + free ponatinib): 3.25
Total SC comp. ([1]; + free ponatinib): 13
Av. SC ([1]; no competitor): 11.25
Total SC ([1]; no competitor): 45
Av. SC comp. ([2]; + free ponatinib): 0
Total SC comp. ([2]; + free ponatinib): 0
Av. SC ([2]; no competitor): 1.25
Total SC ([2]; no competitor): 5
Av. SC comp. ([3]; + free ponatinib): 1.25
Total SC comp. ([3]; + free ponatinib): 5
Av. SC ([3]; no competitor): 9
Total SC ([3]; no competitor): 36
Av. SC comp. ([4]; + free ponatinib): 0
Total SC comp. ([4]; + free ponatinib): 0
Av. SC ([4]; no competitor): 17
Total SC ([4]; no competitor): 68
Av. SC comp. ([5]; + free ponatinib): 4
Total SC comp. ([5]; + free ponatinib): 16
Av. SC ([5]; no competitor): 24.25
Total SC ([5]; no competitor): 97
Av. SC comp. ([6]; + free ponatinib): 0
Total SC comp. ([6]; + free ponatinib): 0
Av. SC ([6]; no competitor): 32.5
Total SC ([6]; no competitor): 130
Av. SC comp. ([7]; + free ponatinib): 2.75
Total SC comp. ([7]; + free ponatinib): 11
Av. SC ([7]; no competitor): 7.25
Total SC ([7]; no competitor): 29
Av. SC comp. ([8]; + free ponatinib): 0
Total SC comp. ([8]; + free ponatinib): 0
Av. SC ([8]; no competitor): 21.5
Total SC ([8]; no competitor): 86
Av. SC comp. ([9]; + free ponatinib): 0
Total SC comp. ([9]; + free ponatinib): 0
Av. SC ([9]; no competitor): 9.5
Total SC ([9]; no competitor): 38
Av. SC comp. ([10]; + free ponatinib): 0
Total SC comp. ([10]; + free ponatinib): 0
Av. SC ([10]; no competitor): 10.5
Total SC ([10]; no competitor): 42
Av. SC comp. ([11]; + free ponatinib): 0
Total SC comp. ([11]; + free ponatinib): 0
Av. SC ([11]; no competitor): 7.5
Total SC ([11]; no competitor): 30
